# Reference: publication PMC8000084, “Peptide Dendrimers with Non-Symmetric Bola Structure Exert Long Term Effect on Glioblastoma and Neuroblastoma Cell Lines” (Biomolecules, 2021)
# Legend:
# [1] = 5.5 μM; cited from earlier work
# Method: The results of DPPH and ABTS tests for the (+)10-charged 16, 18, 20, 22, 24, and 26 bola dendrimers at three concentrations (3.78, 7.69, and 15.38 μM) are shown in Figure 5, whereas results of FRAP and CUPRAC tests are shown in Figure 6. Data include also two neutral derivatives 19 and 25 for the PABA and PAS series, respectively. Considering TEAC values, dendrimers show different level of scavenging capacity in both tests, being better scavengers of radical cations than single electron bearing neutral radicals. The highest cationic radical scavenging ability in ABTS test was found for […] ...
# [2] = system: rat primary cerebellar granule cells (CGC); assay type: cell-based; settings: 5 μM, 30 min exposure in Locke 25, PI staining 24 h later; Figure 3
# Method: Primary CGC cultures were prepared from seven-day-old Wistar rats of both sexes as previously described. Procedures using rat pups were performed in accordance with international standards of animal care guidelines and were approved by the Local Care of Experimental Animals Committee. The culture was incubated in growth basal Eagle’s medium (Gibco, Thermo Fisher Scientific, Grand Island, NY, USA), supplemented with 10% fetal calf serum, 25 mM KCl, 4 mM glutamine, penicillin (50 U/mL), and streptomycin ([…]) (Sigma-Aldrich, Poznan, Poland). The density of the cell suspension seeded on the 24-well plates, coated with poly-L-lysine, was 1 × 10^6 cells per well. […]
# Stock solutions were prepared by dissolving dendrimers in dimethylsulfoxide (DMSO) (Sigma-Aldrich, Poznan, Poland), and subsequent dilutions were made in cell medium. The effect of the dendrimers on CGC viability was assessed 24 h after a 30 min exposure of the cultures to the tested compounds using propidium iodide (PI) staining. […] Then, the cells were fixed with 80% methanol, stained with PI (0.5 µg/mL), and viable and dead neurons were counted using an Axiovert fluorescence microscope (Carl Zeiss AG, Germany). The viability of the neurons was determined as percentages of live cells in proportion to all cells.
# [3] = Cupric reducing antioxidant capacity (CUPRAC)
# Method: The CUPRAC method was performed according to procedure described by Apak et al. with small modifications, which was necessary to correlate this method to other used assays. CUPRAC working solution was prepared freshly each time. The stock solution including 0.96 mL ammonium acetate buffer (1 M, pH 7), 0.96 mL 7.5 mM neocuproine solution in MeOH, and 0.96 mL of 10 mM CuCl2 in water was kept away from light. Then, 240 μL dendrimer, Trolox, or solvent (blank sample) standard solution was added to CUPRAC stock solution, and after 25 min, absorbance at 450 nm was recorded. Results were expressed as μM Trolox L^−1. All determinations were carried out in triplicate.
# [4] = Ferric reducing antioxidant power (FRAP); settings: pH 3.6, 593 nm after 15 min; Figure 6
# Method: The FRAP assay was performed according to previously described method with some modifications. FRAP working solution was prepared freshly each time. The stock solution included 2.40 mL acetate buffer (300mM, pH 3.6), 0.24 mL 10 mM TPTZ solution in 40 mM HCl, and 0.24 mL of 20 mM FeCl3 × 6H2O in water. The mixture was kept away from light and warmed at 37 °C before using. Then, 240 μL sample Troloxor solvent (blank sample) standard solution was added to FRAP stock solution. The absorbance was measured at 593 nm after 15 min. Final concentration of methanolic solutions of the studied dendrimers were in range 0–24 μM and Trolox® solutions from 0 to 50 μM.All determinations were carried out in triplicate.
compound,measurement,setting,value
O=C(O)/C=C/c1ccc(O)c(O)c1 [caffeic acid],Trolox equivalence in DPPH test,[1],6–7
Nc1ccc(S(=O)(=O)NCCCCCOc2cc(OCCNS(=O)(=O)c3ccc(N)cc3)cc(C(=O)NCCNC(=O)[C@H](Cc3c[nH]c4ccccc34)NC(=O)[C@H](CCCCNC(=O)c3cc(OCCNC(=O)[C@@H](N)CCCCNC(=O)[C@@H](N)Cc4c[nH]c5ccccc45)cc(OCCNC(=O)[C@@H](N)CCCCNC(=O)[C@@H](N)Cc4c[nH]c5ccccc45)c3)NC(=O)c3cc(OCCNC(=O)[C@@H](N)CCCCNC(=O)[C@@H](N)Cc4c[nH]c5ccccc45)cc(OCCNC(=O)[C@@H](N)CCCCNC(=O)[C@@H](N)Cc4c[nH]c5ccccc45)c3)c2)cc1 [compound 26],viable CGC cells conserved,[2],55–85%
same,enhancement of antioxidant power in transition between FRAP/CUPRAC model,[3]; 3.78 and 7.69 μM,~11 fold
Nc1ccc(S(=O)(=O)O)cc1 [p-aminobenzenesulfonic acid],redox potential / reducing capacity in FRAP test (in words),[4],insignificant
same,redox potential / reducing capacity in CUPRAC test (in words),"[3]; pH 7, 450 nm after 25 min, Figure 6",insignificant
